Test results: ChEMBL document CHEMBL1150834, “Novel halogenated metabolites from the Malaysian Laurencia pannosa” (2001)

Experiments:
Assay type in all cases: functional
[1] = system: Chromobacterium violaceum; test: Antibacterial activity against Chromobacterium violaceum after 24 hrs by paper disk method
Vibrio cholerae = test: Antibacterial activity against Vibrio cholerae after 24 hrs by paper disk method
Proteus mirabilis = test: Antibacterial activity against Proteus mirabilis after 24 hrs by paper disk method

C[C@@H]1[C@]2(CC[C@@](C)(Cl)[C@H](Br)C2)[C@]2(C)CC[C@@]1(C)O2 [PANNOSANE]
MIC [1]: 60 µg

C=C1[C@@H](C)CC[C@@](C)(O)[C@@]12CC[C@@](C)(Cl)[C@H](Br)C2 [PANNOSANOL]
MIC [1]: 100 µg
MIC (Vibrio cholerae): 100 µg
MIC (Proteus mirabilis): 60 µg

C#C/C=C\C[C@@H]1O[C@H]2C[C@@H]1O[C@H](CC)[C@@H](Br)C[C@@H]2Cl
MIC [1]: 100 µg
